The record followed here is patent US20230404989A1, “GRK2 INHIBITION BY PAROXETINE AMELIORATES OSTEOARTHRITIS” (THE PENN STATE RESEARCH FOUNDATION, priority 2020, published 2023).

In one experiment the test system is human OA cartilage. Kind of experiment: Ex vivo cultured human OA osteochondral plugs: IF staining and RT-qPCR. The format is cell-based. To be noted: paroxetine 5 μM or gallein 10 μM, 48 hrs. An excerpt:
An Institutional Review Board-approved protocol was executed to collect discarded de-identified cartilage from patients. For the experiment described in FIG. 3A, we obtained acutely injured human cartilage (from patients undergoing arthroscopic surgery 4 weeks following meniscal injury, N=6) and OA cartilage (from patients undergoing arthroplasty, N=6). Normal controls were obtained from amputees' knees (N=6). Cartilage was fixed in formalin then processed and embedded in paraffin, 5-μm sections were used for immunofluorescence (IF) staining. For the experiment described in FIG. 7, OA osteochondral tissue was collected from patients undergoing total knee arthroplasty. Osteochondral plugs (8-mm diameter) were obtained and bone was flushed with saline solution to remove all bone marrow and blood cells. Plugs were then cultured overnight in low glucose DMEM at 5% CO2 and 37° C. The next morning plugs were treated with either vehicle phosphate buffer saline (PBS), paroxetine (5 μM), or gallein (10 μM), and the drug-containing culture medium was replenished after 24 hrs. After 48 hrs, plugs were fixed for 7 days in 10% neutral buffered formalin (NBF), decalcified for 2 weeks in 10% w/v EDTA, embedded in paraffin, and […] were cut and mounted for histological and IF staining. Alternatively, the cartilage was shaved from plugs and flash-frozen in liquid nitrogen for RNA extraction as described below. mRNA was isolated from human cartilage using the method we published recently, yielding RNA Integrity Number (RIN) values above 7.0 (53). cDNA was prepared using Iscript cDNA synthesis kit from Bio-rad following the manufacturer's protocol. cDNAs were qPCR amplified using TaqMan Gene Expression Assays, with GAPDH as the house keeping gene (ThermoFisher Scientific; described in Table 2) and the 7500 Fast Real-Time PCR System (Applied Biosystems). Paraffin sections were deparaffinized in three changes of xylene for five minutes each, rehydrated in ethanol (two changes of 100% ethanol, followed by two changes of 95% ethanol, followed by one change of 70% ethanol) and rinsed twice in deionized water. Antigen retrieval was performed for 30 minutes at 37° C. using 0.4% pepsin (Sigma P-7000) in 0.1M hydrochloric acid (HCl) and was followed by permeabilization for 30 minutes at room temperature using Triton X in tris buffered saline (TBS). Sections were then blocked for 1 hour at room temperature in 10% normal goat serum in 1×TBS. Tissue sections were incubated overnight at 4° C. with the rabbit anti-mouse primary antibody specific for the target protein (detailed in Table 1).
On the technique in general: Real-time PCR tracks product formation cycle by cycle.

The subject of experiment [1] is DMM mice. Kind of experiment: Micro-CT assessment of knee joint and subchondral bone in DMM mice. In kind it is in vivo, mouse. To be noted: daily ip week 8 to 12. How it is done:
Drug treatment studies: In twelve-week old male wild type C57BL/6 mice that received DMM surgeries, vehicle (PBS), paroxetine (5 mg/kg/day), fluoxetine (5 mg/kg/day), gallein (10 mg/kg/day) or indomethacin (2.5 mg/kg/day) were administered daily by ip injection. Drug treatment was initiated 8 weeks following DMM to determine the role of GRK2 signaling in the progression of OA. Prior to histologic processing, harvested knee joints were evaluated via micro-CT using a Scanco vivaCT40 scanner with a 55 kVp source as we have previously described. Joints were scanned at a resolution of 10.5 μm. General 3-dimensional images were obtained with simple segmentation at a Scanco threshold of 260, which was determined on inspection of the first specimen. This translates to a linear attenuation coefficient of 2.080 cm-1. Knee analysis starts by locating the highest section of the tibial plateau and defining that as the center point. All bone is captured 100 slices in each direction from the center point. The patella and fibula, if present in that region, are excluded. The fabellae are considered part of the knee and are included. A threshold of 260 (2.080 cm′) is used to analyze bone volume and microarchitecture. Tibia subchondral analysis begins by starting at the knee and proceeding distally until the cortical shell is penetrated. All non-cortical bone is included, both solid and trabecular. Osteophytes were identified as protrusions and counted using cross-sectional images of the 3-dimensional stacks. Subchondral plate thickness was calculated by determining the number of cross-sections forming the subchondral plate and multiplying it by section thickness (C. Huesa, Annals of the rheumatic diseases, 75, 1989-1997 (2016)).

In experiment [2] the test system is DMM mice. Kind of experiment: DMM mice treated with PTH, paroxetine or their combination: histology and histomorphometry (Example 1). In kind it is in vivo, mouse. To be noted: treatment week 8 to 12, PTH sc 40 μg/kg/day, paroxetine ip 5 mg/kg/day. How it is done:
Methods: Destabilization of the medial meniscus (DMM) surgery was used to simulate clinical post-traumatic OA. First, we determined the role of GRK2 inhibition in PTH1R Gas-cAMP signaling: 12 week old male mice underwent sham or DMM surgery and were treated with either vehicle or the GRK2 inhibitor “paroxetine” (ip, 5 mg/kg/day), treatment was initiated at the time of surgery and continued daily until 8 weeks. Knees were harvested and articular cartilage was obtained for ex vivo analysis of Gas activity. In ex vivo culture, cartilage explants were treated with PTH as an agonist to stimulate PTH1R-Ga-cAMP signaling. Thirty minutes following PTH stimulation, cartilage tissue was homogenized and cAMP levels were measured. Then, we determined the role of GRK2 inhibition in recovering or even potentiating PTH1R signaling in OA cartilage: 12 week old male mice underwent sham or DMM surgery, and received treatment with vehicle, PTH (sc, 40 μg/kg/day) alone, the GRK2 inhibitor “paroxetine3” (ip, 5 mg/kg/day) alone, or their combination. Treatment was initiated at week 8 following DMM surgery, where OA is in progress, and continued until week 12 where mice were sacrificed. Knees were harvested, paraffin embedded, sectioned and stained with safranin-o and fast green for histological evaluation, OARSI scoring, and histomorphometric analysis. Results are expressed as mean values+s.e.m. with an N=5-8 mice per experimental group. Statistical analyses were performed using one ANVOA with P<0.05 representing statistical significance.

Experiment [3] deals with DMM mice. Kind of experiment: Response threshold to mechanical pain stimulus in DMM mice. In kind it is in vivo, mouse. To be noted: daily treatment week 8 to 12, measured 12 weeks following DMM. The text has this: Paroxetine attenuates pain sensitivity of DMM mice. Response threshold to mechanical pain stimulus measured in sham mice and DMM mice 12 weeks following DMM. DMM mice received respective daily treatments from week 8 until week 12 following DMM: vehicle (V) or Paroxetine (Px). *P<0.05 & ***P<0.001.

In experiment [4] the test system is DMM mice. Kind of experiment: Gait (stride length) in DMM mice. The format is in vivo, mouse. The following applies: daily treatment week 8 to 12, measured 12 weeks following DMM. An excerpt: Paroxetine normalizes changes in the gait of DMM mice. Stride length in centimeters measured for sham mice and DMM mice 12 weeks following DMM. DMM mice received respective daily treatments from week 8 until week 12 following DMM: vehicle (V) or Paroxetine (Px). **P<0.01 & ***P<0.001

On to `O=C1OC2(c3ccccc31)c1ccc(O)c(O)c1Oc1c2ccc(O)c1O` [gallein], for which, in the experiment with human OA cartilage, the “ADAMTS5 mRNA expression (RT-qPCR)” value is on record as “did not achieve statistical significance”, the “ADAMTS5 protein expression (IF staining)” value was “attenuated”, the “GRK2 mRNA expression (RT-qPCR)” value is reported as “not affected” and the “GRK2 protein expression (IF staining)” value is “reduced”. In the experiment on human OA cartilage, the “MMP13 mRNA expression (RT-qPCR)” value is listed as “did not achieve statistical significance” and the “MMP13 protein expression (IF staining)” value is reported as “attenuated”. Besides, in the experiment on DMM mice [1], the higher osteophyte number entry is “alleviated”, the “higher subchondral bone mineral density (BMD)” value is listed as “alleviated”, the “higher subchondral bone volume density (BV/TV)” value is “alleviated” and the “higher subchondral plate thickness” value is “alleviated”. In the experiment on DMM mice [1], the “higher subchondral trabecular thickness (Tb.Th)” value is “alleviated”, the “increased knee bone volume (BV)” value was “ameliorated” and the “increased knee total volume (TV)” value is “ameliorated”.

`Fc1ccc([C@@H]2CCNC[C@H]2COc2ccc3c(c2)OCO3)cc1` [paroxetine]: in the experiment with DMM mice [2], the chondrocyte number entry is on record as “increased”, the “number of matrix-producing (anabolic) chondrocytes” value is listed as “particular increase” and the uncalcified cartilage area result is “increased”. For the same molecule, in the experiment on human OA cartilage, the “ADAMTS5 mRNA expression (RT-qPCR)” value was “significantly inhibited”, the “ADAMTS5 protein expression (IF staining)” value is recorded as “significantly inhibited”, the “GRK2 mRNA expression (RT-qPCR)” value is given as “not affected” and the “GRK2 protein expression (IF staining)” value is given as “reduced”. In addition, in the experiment with human OA cartilage, the “MMP13 mRNA expression (RT-qPCR)” value is “significantly inhibited” and the “MMP13 protein expression (IF staining)” value is “significantly inhibited”. Besides, in the experiment on DMM mice [1], the higher osteophyte number result is “alleviated”, the “higher subchondral bone mineral density (BMD)” value was “alleviated”, the “higher subchondral bone volume density (BV/TV)” value was “alleviated” and the “higher subchondral plate thickness” value is on record as “alleviated”. In addition, in the experiment with DMM mice [1], the “higher subchondral trabecular thickness (Tb.Th)” value is listed as “alleviated”, the “increased knee bone volume (BV)” value is “ameliorated” and the “increased knee total volume (TV)” value was “ameliorated”. Moreover, the “pain sensitivity (response threshold to mechanical pain stimulus)” value in the experiment on DMM mice [3] is reported as “attenuates”. In addition, in the experiment with DMM mice [4], the “changes in the gait (stride length)” value is “normalizes”.
